# Patent US3988364A, “Novel N,N-di-substituted amidines and several acid-addition salts thereof” (Toyo Jozo Kabushiki Kaisha, priority 1972, dated 1976)
# Structures can show the parent of a compound that is named as a salt. Where two headings read alike, the source gives them in different places.
# Assays:
# dogs = assay: Antitussive activity (50%-antitussive effective dose AtD50; efficiency ratio relative to codeine phosphate); type: in vivo; conditions: for Antitussive Ratio: efficiency ratio relative to codeine phosphate; for ED50: Canis lupus familiaris, read-out: AtD50 (50%-antitussive effective dose)
# Method: route of administration:
# From the efficiency rate obtained upon each administration step, 50%-antitussive effective dose (AtD50) was calculated according to the Litchfield-Wilcoxon method. Further, efficiency ratio relative to codeine phosphate was also determined.
# in vivo = type: in vivo; conditions: mouse, in vivo, sc, male ddy mice, subcutaneous injection, Litchfield-Wilcoxon
# Source text: (§1) test animals: more than five groups, each group
# consisting of five male mice of ddy-
# male mice of ddy-strain = assay: in vivo; type: in vivo; conditions: subcutaneous injection, 72 hours, Litchfield-Wilcoxon
# Source text: as §1
# consisting of five male mice of ddy-
# persons = conditions: in words; inhibits long continuous administration; cited from earlier work
# [1] = intravenous injection, Litchfield-Wilcoxon method
# 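For LD50 in this document: animals allocated into more than five groups, with five mice per group.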
SMILES,Antitussive Ratio (dogs; intravenous injection),LD50 at 72 h (in vivo) [mg/kg],ED50 (dogs; [1]) [mg/kg],further results
"Cc1ccccc1NC(=NC1CCCCC1)c1ccccc1 [Compound 1, hydrochloric acid salt of N-cyclohexyl, N'-o-tolyl-benzamidine]",1.73,242,,
"Cc1ccc(NC(=NC2CCCCC2)c2ccccc2)cc1 [Compound 2, hydrochloric acid salt of N-cyclohexyl, N'-p-tolyl-benzamidine]",0.58,186,,
"CCc1ccc(N=C(NC2CCCCC2)c2ccccc2)cc1.Cl [Compound 3, N-cyclohexyl, N'-p-ethylphenyl-benzamidine hydrochloride]",0.95,218,,
"Cc1cccc(NC(=NC2CCCCC2)c2ccccc2)c1C [Compound 4, hydrochloric acid salt of N-cyclohexyl, N'-2,3-xylyl-benzamidine]",1.21,117,,
"COc1ccccc1N=C(NC1CCCCC1)c1ccccc1.Cl [Compound 5, N-cyclohexyl, N'-o-methoxyphenyl-benzamidine hydrochloride]",0.44,268,,
"COc1cccc(N=C(NC2CCCCC2)c2ccccc2)c1.Cl [Compound 6, N-cyclohexyl, N'-m-methoxyphenyl-benzamidine hydrochloride]",1.20,78,,
"c1ccc(C(=NC2CCCCC2)Nc2cccc3ccccc23)cc1 [Compound 7, N-cyclohexyl, N'-α-naphtyl-benzamidine hydrochloride]",0.79,> 800,,
"Cc1cccc(C(=NC2CCCCC2)Nc2ccccc2)c1 [Compound 8, hydrochloric acid salt of N-cyclohexyl, N'-phenyl-m-toluamidine]",1.20,276,,
"Cc1cccc(NC(=NC2CCCCC2)c2cccc(C)c2)c1 [Compound 9, hydrochloric acid salt of N-cyclohexyl, N'-m-tolyl-m-toluamidine]",1.20,445,,
"Cc1ccc(C(=NC2CCCCC2)Nc2ccccc2)cc1 [Compound 10, hydrochloric acid salt of N-cyclohexyl, N'-phenyl-p-toluamidine]",0.83,186,,
"Cl.c1ccc(N(CCN2CCCCC2)Cc2ccccn2)cc1 [Compound 11, picoperidamine hydrochloride, reference compound]",0.95,,,LD50 (male mice of ddy-strain): 144 mg/kg
"Cl.Clc1ccc(C(OCCN2CCCCC2)c2ccccc2)cc1 (stereo not drawn) [Compound 13, Hustazol, reference compound]",0.52,,,LD50 (male mice of ddy-strain): 375 mg/kg
"COc1ccc2c(c1)[C@]13CCCC[C@@H]1[C@H](C2)N(C)CC3 [Compound 15, dextrometrofan hydrobromide, reference compound]",0.15,153,,
"COc1ccc2c(c1OC)C(=O)O[C@@H]2[C@H]1c2c(cc3c(c2OC)OCO3)CCN1C [Compound 16, noscapine hydrochloride, reference compound]",0.24,240,,
"COc1ccc2c3c1O[C@H]1[C@@H](O)C=C[C@H]4[C@@H](C2)N(C)CC[C@@]341 [Compound 17, codeine phosphate, reference compound]",1.00,,2.2,LD50 (male mice of ddy-strain): 190 mg/kg; habituation (persons): appreciable habituation
"Cc1ccccc1C(=NC1CCCCC1)Nc1ccccc1 [Compound 18, N-cyclohexyl, N'-phenol-o-toluamidine hydrochloride]",,740,,ED50 (dogs; iv): 5.15 mg/kg
"Cc1ccccc1N=C(NC1CCCCC1)c1ccccc1C.Cl [Compound 19, N-cyclohexyl, N'-o-tolyl-o-toluamidine hydrochloride]",,650,5.15,
"Cc1cccc(N=C(NC2CCCCC2)c2ccccc2C)c1.Cl [Compound 20, N-cyclohexyl, N'-m-tolyl-o-toluamidine hydrochloride]",,> 100,,ED50 (dogs; iv): 4.29 mg/kg
"Cc1ccc(N=C(NC2CCCCC2)c2ccccc2C)cc1.Cl [Compound 21, N-cyclohexyl, N'-p-tolyl-o-toluamidine hydrochloride]",,160,3.58,
"Cc1ccccc1C(=NC1CCCCC1)Nc1cccc(C)c1C [Compound 22, N-cyclohexyl, N'-2,3,-xylyl-o-toluamidine hydrochloride]",,> 1000,3.58,
"COc1ccccc1N=C(NC1CCCCC1)c1cccc(C)c1.Cl [Compound 23, N-cyclohexyl, N'-o-methoxyphenyl-m-toluamidine hydrochloride]",,100,,ED50 (dogs; iv): 4.29 mg/kg
"COc1cccc(N=C(NC2CCCCC2)c2ccccc2C)c1.O=C(O)C(=O)O [Compound 24, N-cyclohexyl, N'-m-methoxyphenyl-o-toluamidine oxalate]",,891,5.15,

SMILES,Antitussive Ratio (dogs; intravenous injection),LD50 at 72 h (in vivo) [mg/kg],ED50 (dogs; [1]) [mg/kg],further results
"Cc1ccc(N=C(NC2CCCCC2)c2cccc(C)c2)cc1.Cl [Compound 25, N-cyclohexyl, N'-p-tolyl-m-toluamidine hydrochloride]",,900,4.29,
"Cc1cccc(C(=Nc2ccccc2C)NC2CCCCC2)c1.Cl [Compound 26, N-cyclohexyl, N'-o-tolyl-m-toluamidine hydrochloride]",,740,2.98,
"CCc1ccccc1N=C(NC1CCCCC1)c1cccc(C)c1.Cl [Compound 27, N-cyclohexyl, N'-o-ethylphenyl-m-toluamidine hydrochloride]",,> 1000,5.15,
"COc1cccc(N=C(NC2CCCCC2)c2cccc(C)c2)c1.O=C(O)C(=O)O [Compound 28, N-cyclohexyl, N'-m-methoxyphenyl-m-toluamidine oxalate]",,743,5.15,
"Cc1ccc(C(=Nc2ccccc2C)NC2CCCCC2)cc1.Cl [Compound 29, N-cyclohexyl, N'-o-tolyl-p-toluamidine hydrochloride]",,620,2.48,
"CCc1ccccc1N=C(NC1CCCCC1)c1ccc(C)cc1.Cl [Compound 30, N-cyclohexyl, N'-o-ethylphenyl-p-toluamidine hydrochloride]",,> 1000,4.29,
"Cc1ccc(C(=NC2CCCCC2)Nc2cccc(C)c2C)cc1 [Compound 31, N-cyclohexyl, N'-2,3,-xylyl-p-toluamidine hydrochloride]",,> 1000,2.07,
"Cc1ccc(C(=Nc2cccc(C)c2)NC2CCCCC2)cc1.Cl [Compound 32, N-cyclohexyl, N'-m-tolyl-p-toluamidine hydrochloride]",,460,2.48,
"COc1cccc(N=C(NC2CCCCC2)c2ccc(C)cc2)c1.Cl [Compound 33, N-cyclohexyl, N'-m-methoxyphenyl-p-toluamidine hydrochloride]",,600,5.15,
"COc1ccccc1C(=Nc1ccccc1)NC1CCCCC1.Cl [Compound 34, N-cyclohexyl, N'-phenyl-o-methoxy-benzamidine hydrochloride]",,100,3.58,
"COc1ccccc1C(=Nc1cccc(C)c1)NC1CCCCC1.Cl [Compound 35, N-cyclohexyl, N'-m-tolyl-o-methoxy-benzamidine hydrochloride]",,144,5.15,
"COc1ccccc1C(=Nc1ccccc1C)NC1CCCCC1.Cl [Compound 36, N-cyclohexyl, N'-o-tolyl-o-methoxy-benzamidine hydrochloride]",,100,4.29,
"COc1cccc(N=C(NC2CCCCC2)c2ccccc2OC)c1.Cl [Compound 37, N-cyclohexyl, N'-m-methoxyphenyl-o-methoxybenzamidine hydrochloride]",,207,2.98,
"COc1ccc(C(=Nc2ccccc2)NC2CCCCC2)cc1.Cl [Compound 38, N-cyclohexyl, N'-phenyl-p-anisamidine hydrochloride]",,120,2.98,
"COc1ccc(C(=Nc2ccccc2C)NC2CCCCC2)cc1.Cl [Compound 39, N-cyclohexyl, N'-o-tolyl-p-anisamidine hydrochloride]",,172,3.58,
"COc1ccc(C(=Nc2cccc(C)c2)NC2CCCCC2)cc1.Cl [Compound 40, N-cyclohexyl, N'-m-tolyl-p-anisamidine hydrochloride]",,298,2.48,
"COc1ccc(C(=Nc2cccc(OC)c2)NC2CCCCC2)cc1.Cl [Compound 41, N-cyclohexyl, N'-m-methoxyphenyl-p-anisamidine hydrochloride]",,248,2.98,
"CCc1ccccc1N=C(NC1CCCCC1)c1ccccc1.Cl [Compound 42, N-cyclohexyl, N'-o-ethylphenyl-benzamidine hydrochloride]",,> 1000,4.29,
"Cc1cc(C)cc(N=C(NC2CCCCC2)c2ccccc2)c1.Cl [Compound 43, N-cyclohexyl, N'-3,5-xylyl-benzamidine hydrochloride]",,660,3.58,
"CCc1cccc(N=C(NC2CCCCC2)c2ccccc2)c1.Cl [Compound 44, N-cyclohexyl, N'-m-ethylphenyl-benzamidine hydrochloride]",,900,4.29,
"Cc1cccc(C)c1N=C(NC1CCCCC1)c1ccccc1.Cl [Compound 45, N-cyclohexyl, N'-2,6-xylyl-benzamidine hydrochloride]",,248,4.29,
"Cc1cc(C)c(NC(=NC2CCCCC2)c2ccccc2)c(C)c1 [Compound 46, N-cyclohexyl, N'-2,4,6-trimethyl-phenyl-benzamidine hydrochloride]",,120,5.15,
